Laboratory results published in patent publication US11524966B1 (Valo Early Discovery, Inc., priority 2017, dated 2022).

Target: T1, USP25 (USP25-His6, Boston Biochem E-546) (Homo sapiens, UniProt Q9UHP3)
T1 construct: His6; purchased Boston Biochem E-546
T1 sequence (Q9UHP3 1-1055): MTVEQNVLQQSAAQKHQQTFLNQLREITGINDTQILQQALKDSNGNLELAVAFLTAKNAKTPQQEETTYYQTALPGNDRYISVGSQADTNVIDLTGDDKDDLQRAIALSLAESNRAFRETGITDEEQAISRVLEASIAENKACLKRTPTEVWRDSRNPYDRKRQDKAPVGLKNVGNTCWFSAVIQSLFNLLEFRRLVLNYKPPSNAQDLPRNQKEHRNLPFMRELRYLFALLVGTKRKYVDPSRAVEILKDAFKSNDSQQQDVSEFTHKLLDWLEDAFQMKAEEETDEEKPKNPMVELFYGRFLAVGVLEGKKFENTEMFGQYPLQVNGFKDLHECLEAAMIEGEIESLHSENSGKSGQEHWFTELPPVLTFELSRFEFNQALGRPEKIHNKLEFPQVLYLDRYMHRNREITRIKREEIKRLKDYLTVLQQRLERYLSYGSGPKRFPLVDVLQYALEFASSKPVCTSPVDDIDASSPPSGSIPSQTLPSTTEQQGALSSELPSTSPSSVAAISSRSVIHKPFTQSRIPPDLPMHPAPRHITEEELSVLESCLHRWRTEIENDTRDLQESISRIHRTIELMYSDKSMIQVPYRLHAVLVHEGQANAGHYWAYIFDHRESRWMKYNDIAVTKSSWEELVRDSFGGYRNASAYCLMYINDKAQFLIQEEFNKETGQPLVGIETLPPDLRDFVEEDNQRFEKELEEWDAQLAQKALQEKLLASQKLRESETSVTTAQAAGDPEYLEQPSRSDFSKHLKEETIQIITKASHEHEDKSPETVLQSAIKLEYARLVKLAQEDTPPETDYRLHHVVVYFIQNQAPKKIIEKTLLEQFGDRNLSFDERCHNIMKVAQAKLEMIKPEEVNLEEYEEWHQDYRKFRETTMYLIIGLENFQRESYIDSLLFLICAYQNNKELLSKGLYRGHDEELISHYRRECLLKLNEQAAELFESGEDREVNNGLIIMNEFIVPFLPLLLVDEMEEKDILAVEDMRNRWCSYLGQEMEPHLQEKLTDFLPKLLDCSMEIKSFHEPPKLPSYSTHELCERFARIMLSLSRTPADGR
Experiment: Ubiquitin-Rhodamine 110 Assay for USP25 Activity, Example A-2
Assay type: biochemical
Conditions: Ubiquitin-Rhodamine 110 assay, Example A-2; read-out: USP25 A-2 IC50 range
How it was run: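 Read-out: Rh110 fluorescence (ex 485, em 535 nm) after 45 min RT turnover of 25 nM Ub-Rh110 by 75 pM USP25-His6, quenched with 10 mM citric acid. Compounds at 25 μM–1.3 nM, preincubated 30 min with enzyme. IC50 from 4-parameter logistic fit.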

SMILES | IC50 [nM]
Cc1cnc2c(N)c(C(=O)N[C@H]3COc4c(C#N)c(N5CCNCC5)cc(F)c4C3)sc2n1 [Example 60, (R)-7-amino-N-(8-cyano-5-fluoro-7-(piperazin-1-yl)chroman-3-yl)-3-methylthieno[2,3-b]pyrazine-6-carboxamide] | 200 to 2000
Cc1ccc2c(N)c(C(=O)N[C@H]3COc4cc(N5CCNCC5)c(F)c(F)c4C3)sc2n1 [Example 61, (R)-3-amino-N-(5,6-difluoro-7-(piperazin-1-yl)chroman-3-yl)-6-methylthieno[2,3-b]pyridine-2-carboxamide] | 50 to 200
Cc1ccc2c(N)c(C(=O)N[C@H]3COc4cc([C@H]5CCNC[C@H]5O)ccc4C3)sc2n1 [Example 62, 3-amino-N-((R)-7-((3S,4R)-3-hydroxypiperidin-4-yl)chroman-3-yl)-6-methylthieno[2,3-b]pyridine-2-carboxamide] | 1 to 50
Cc1ccc2c(N)c(C(=O)N[C@H]3COc4cc([C@@H]5CCNC[C@@H]5O)ccc4C3)sc2n1 [Example 63, 3-amino-N-((R)-7-((3R,4S)-3-hydroxypiperidin-4-yl)chroman-3-yl)-6-methylthieno[2,3-b]pyridine-2-carboxamide] | 50 to 200
Cc1ccc2c(N)c(C(=O)N[C@H]3COc4cc([C@H]5CCNC[C@@H]5O)ccc4C3)sc2n1 [Example 64, 3-amino-N-((R)-7-((3R,4R)-3-hydroxypiperidin-4-yl)chroman-3-yl)-6-methylthieno[2,3-b]pyridine-2-carboxamide] | 50 to 200
Cc1ccc2c(N)c(C(=O)N[C@H]3COc4cc([C@@H]5CCNC[C@H]5O)ccc4C3)sc2n1 [Example 65, 3-amino-N-((R)-7-((3S,4S)-3-hydroxypiperidin-4-yl)chroman-3-yl)-6-methylthieno[2,3-b]pyridine-2-carboxamide] | 50 to 200
Cc1nc2sc(C(=O)N[C@H]3COc4cc(N5CCNCC5)c(F)c(F)c4C3)c(N)c2s1 [Example 66, (R)-6-amino-N-(5,6-difluoro-7-(piperazin-1-yl)chroman-3-yl)-2-methylthieno[2,3-d]thiazole-5-carboxamide] | 200 to 2000
Cc1cnc2c(N)c(C(=O)N[C@H]3COc4cc(N5CCNCC5)c(C#N)c(F)c4C3)sc2n1 [Example 67, (R)-7-amino-N-(6-cyano-5-fluoro-7-(piperazin-1-yl)chroman-3-yl)-3-methylthieno[2,3-b]pyrazine-6-carboxamide] | 50 to 200
Cc1ccc2c(N)c(C(=O)N[C@H]3COc4c(F)c(N5CCNCC5)cc(F)c4C3)oc2n1 [Example 68, (R)-3-amino-N-(5,8-difluoro-7-(piperazin-1-yl)chroman-3-yl)-6-methylfuro[2,3-b]pyridine-2-carboxamide] | > 2000
Cc1ccc2c(N)c(C(=O)N[C@H]3COc4cc([C@H]5CCNCC5(F)F)ccc4C3)sc2n1 [Example 69, 3-amino-N-((R)-7-((R)-3,3-difluoropiperidin-4-yl)chroman-3-yl)-6-methylthieno[2,3-b]pyridine-2-carboxamide] | 50 to 200
Cc1ccc2c(N)c(C(=O)N[C@H]3COc4cc([C@@H]5CCNCC5(F)F)ccc4C3)sc2n1 [Example 70, 3-amino-N-((R)-7-((S)-3,3-difluoropiperidin-4-yl)chroman-3-yl)-6-methylthieno[2,3-b]pyridine-2-carboxamide] | 1 to 50
Cc1cnc2c(N)c(C(=O)N[C@H]3COc4cc(N5CCNCC5)ncc4C3)sc2n1 [Example 71, (R)-7-amino-3-methyl-N-(7-(piperazin-1-yl)-3,4-dihydro-2H-pyrano[3,2-c]pyridin-3-yl)thieno[2,3-b]pyrazine-6-carboxamide] | 200 to 2000
Cc1nc2sc(C(=O)N[C@H]3COc4cc(N5CCNCC5)ncc4C3)c(N)c2cc1F [Example 72, (R)-3-amino-5-fluoro-6-methyl-N-(7-(piperazin-1-yl)-3,4-dihydro-2H-pyrano[3,2-c]pyridin-3-yl)thieno[2,3-b]pyridine-2-carboxamide] | 200 to 2000
C[C@@H]1CCc2cc(C(=O)N[C@H]3COc4cc(N5CC6CCC(C5)N6)ccc4C3)cnc2N1 [Example 74, (7R)-N-((3R)-7-(3,8-diazabicyclo[3.2.1]octan-3-yl)chroman-3-yl)-7-methyl-5,6,7,8-tetrahydro-1,8-naphthyridine-3-carboxamide] | 200 to 2000
Cc1ccc2c(N)c(C(=O)N[C@H]3COc4cc(N5C[C@@H]6CC[C@H]5CN6)ncc4C3)sc2n1 [Example 75, N-((R)-7-((1S, 4S)-2 5-diazabicyclo[2.2.2]octan-2-yl)-3,4-dihydro-2H-pyrano[3,2-c]pyridin-3-yl)-3-amino-6-methylthieno[2,3-b]pyridine-2-carboxamide] | 1 to 50
Cc1ccc2c(N)c(C(=O)N[C@H]3COc4cc(N5C[C@H]6CC[C@@H]5CN6)ncc4C3)sc2n1 [Example 76, N-((R)-7-((1 R,4R)-2,5-diazabicyclo[2.2.2]octan-2-yl)-3,4-dihydro-2H-pyrano[3,2-c]pyridin-3-yl)-3-amino-6-methylthieno[2,3-b]pyridine-2-carboxamide] | 50 to 200
Cc1cnc2c(N)c(C(=O)N[C@H]3COc4c(C#N)c(N5CC6CC(C5)N6)cc(F)c4C3)sc2n1 [Example 77, N-((3R)-7-(3,6-diazabicyclo[3.1.1]heptan-3-yl)-8-cyano-5-fluorochroman-3-yl)-7-amino-3-methylthieno[2,3-b]pyrazine-6-carboxamide] | 200 to 2000
Cc1ccc2c(N)c(C(=O)N[C@H]3COc4c(F)c(N5CC6CNCC(C5)O6)cc(F)c4C3)sc2n1 [Example 78, N-((3R)-7-(9-oxa-3,7-diazabicyclo[3.3.1]nonan-3-yl)-5,8-difluorochroman-3-yl)-3-amino-6-methylthieno[2,3-b]pyridine-2-carboxamide] | 1 to 50
Cc1ccc2c(N)c(C(=O)N[C@H]3COc4cc(N5CC6CNCC(C5)O6)c(F)c(F)c4C3)sc2n1 [Example 79, N-((3R)-7-(9-oxa-3,7-diazabicyclo[3.3.1]nonan-3-yl)-5,6-difluorochroman-3-yl)-3-amino-6-methylthieno[2,3-b]pyridine-2-carboxamide] | 1 to 50
Cc1ccc2c(N)c(C(=O)N[C@H]3COc4cc([C@H]5CCNC[C@@H]5F)ccc4C3)sc2n1 [Example 80, 3-amino-N-((R)-7-((3R,4R)-3-fluoropiperidin-4-yl)chroman-3-yl)-6-methylthieno[2,3-b]pyridine-2-carboxamide] | 50 to 200
Cc1ccc2c(N)c(C(=O)N[C@H]3COc4cc([C@@H]5CCNC[C@H]5F)ccc4C3)sc2n1 [Example 81, 3-amino-N-((R)-7-((3S,4S)-3-fluoropiperidin-4-yl)chroman-3-yl)-6-methylthieno[2,3-b]pyridine-2-carboxamide] | 50 to 200
Cc1ccc2c(N)c(C(=O)N[C@H]3COc4cc([C@H]5CCNC[C@H]5F)ccc4C3)sc2n1 [Example 82, 3-amino-N-((R)-7-((3S,4R)-3-fluoropiperidin-4-yl)chroman-3-yl)-6-methylthieno[2,3-b]pyridine-2-carboxamide] | 1 to 50
Cc1ccc2c(N)c(C(=O)N[C@H]3COc4cc([C@@H]5CCNC[C@@H]5F)ccc4C3)sc2n1 [Example 83, 3-amino-N-((R)-7-((3R,4S)-3-fluoropiperidin-4-yl)chroman-3-yl)-6-methylthieno[2,3-b]pyridine-2-carboxamide] | 50 to 200
CCn1ccc2cc(C(=O)N[C@H]3COc4c(F)c([C@@H]5CCNC[C@@H]5O)cc(F)c4C3)nnc21 [Example 84, N-((R)-5,8-difluoro-7-((3R,4S)-3-hydroxypiperidin-4-yl)chroman-3-yl)-7-ethyl-7H-pyrrolo[2,3-c]pyridazine-3-carboxamide] | > 2000
CCn1ccc2cc(C(=O)N[C@H]3COc4c(F)c([C@H]5CCNC[C@H]5O)cc(F)c4C3)nnc21 [Example 85, N-((R)-5,8-difluoro-7-((3S,4R)-3-hydroxypiperidin-4-yl)chroman-3-yl)-7-ethyl-7H-pyrrolo[2,3-c]pyridazine-3-carboxamide] | > 2000
CO[C@@H]1CN(c2cc(F)c3c(c2F)OC[C@H](NC(=O)c2sc4nc(C)ccc4c2N)C3)C[C@H]1N [Example 86] | 200 to 2000
CO[C@H]1CN(c2cc(F)c3c(c2F)OC[C@H](NC(=O)c2sc4nc(C)ccc4c2N)C3)C[C@@H]1N [Example 87, 3-amino-N-((R)-7-((3S,4S)-3-amino-4-methoxypyrrolidin-1-yl)-5,8-difluorochroman-3-yl)-6-methylthieno[2,3-b]pyridine-2-carboxamide] | 200 to 2000
